These results are taken from patent US6413499B1, “Methods and kits for maxillary dental anesthesia by means of a nasal deliverable anesthetic” (priority 2000, dated 2002).

Each structure is given as a SMILES string. Where a name gives a salt, the structure may show the parent alone.

The subject of this data set is maxillary dental arch. The data set is described as follows: nasal deliverable anesthetizing composition applied to a patient's nasal cavity. The class given is in vivo. The following applies: for absorption of the anesthetic with vasoconstrictor: compared to an anesthetic composition applied to nasal tissue not treated with a vasoconstrictor, HCl. The source says:
As set forth above, the inventive nasal deliverable anesthetic compositions are delivered to the patient through the nasal cavity. This is done by applying the anesthetic composition to the lateral wall or membrane of the nasal cavity, where it can be absorbed into the nasal tissue, including nerves located within the nasal tissue. In the case where a delivery device having an extension tube is used, good results have been obtained by inserting approximately 15 mm of the tube into the patient's nasal cavity through the nostril. A nasal speculum may advantageously be used to assist in dilating the patient's nostril preparatory to inserting the extension tube so as to facilitate placement of the tube in a desired location within the patient's nasal cavity.
As discussed above with respect to FIG. 1, the nasal cavity includes a number of nerves that are responsible for transmitting pain and pressure impulses from the maxillary arch and palate to the brain. Most of these nerves collect at and below the maxillary nerve. Due to the location of the various nerves that collect at or below the maxillary nerve it may be possible to provide various degrees of anesthesia. Control of dosage volume, through control of the number of substance dispensing, can be utilized to determine the anatomical structures to be anesthetized. Minimal dosage volumes tend to yield anesthesia to at least a portion of the maxillary dentition, while greater anesthetic dosages yield anesthesia to the entire maxillary arch.
The tetracaine portion included an associated chlorobutanol preservative. The aqueous solution included sodium chloride in water.

For `Cc1cc(C(C)(C)C)c(O)c(C)c1CC1=NCCN1` [Oxymetazoline HCl], the “absorption of the anesthetic with vasoconstrictor” value is “enhanced the absorption of the tetracaine”. Moreover, where the note is “compared to a lidocaine composition applied to nasal tissue not treated with a vasoconstrictor”, the “anesthetic effect of the anesthetic with vasoconstrictor” value is on record as “enhanced the anesthetic effect of the lidocaine”. Moreover, the “absorption of the anesthetic with vasoconstrictor” value (listed as oxymetazoline HCl) is recorded as “enhanced the absorption of the benzocaine”.
